The subject of data set [1] is AGS cells. As to the kind of experiment: cytotoxicity, LDH release. In kind it is cell-based, human. Particulars: 0.78 to 50 μg ml^−1, 24 h. How it is done:
Cytotoxicity of the 2-OH-1,4-NQ derivatives was assessed by measuring lactate dehydrogenase (LDH) release following manufacturer's instructions (Cytotoxicity Detection Kit; Roche Applied Sciences). Briefly, AGS cells (human gastric adenocarcinoma cell line; ATCC Catalog no. CRL-1739TM) were cultured in Ham's F-12 K medium containing 1% of FBS. A total of 3 × 10^4 cells were added per well in a sterile 96-well tissue culture plate. Cells were then treated with different doses of 2-OH-1,4-NQ compounds ranging from 0.78 to 50 μg ml^−1. After a 24 h incubation at 37°C (5% CO2, 90% humidity), the microplates were centrifuged at 250g for 10 min, and the supernatants were carefully removed and transferred into optically clear 96-well microplates (Greiner Bio-One). The dye solution containing iodotetrazolium chloride and sodium lactate was then added to each well to quantify the amount of LDH released into the extracellular medium. LDH was quantified by measuring the A490 using a PowerWave Microplate Spectrophotometer (BioTek).
(In general: Release of lactate dehydrogenase indicates damage to the cell membrane.)

Data set [2] has as its system H. pylori strain SS1. Put plainly: MIC, broth microdilution test, strain SS1. In kind it is cell-based. Particulars: Helicobacter pylori, 24 h, read-out: minimal inhibitory concentration (MIC) strain SS1. How it is done: (§1) The in vitro anti-bacterial activity of 2-OH-1,4-NQ compounds was assessed against the 26695 and SS1 strains of H. pylori. DMSO was used as control in all experiments.
(§2) Disc diffusion tests were performed in triplicate, including a DMSO-only control on each plate, as specified in the electronic supplementary material. Minimal inhibitory concentrations (MICs) were determined using a broth microdilution test in 24-well microtitre plates. For test inocula, an overnight preculture of H. pylori strains 26695 and SS1 was diluted to an OD600 of approximately 0.1 and 0.5 ml of this suspension was transferred to each well. Ten microlitres of twofold serial dilutions of each compound in DMSO, ranging in concentration from 0.625 to 20 µg ml^−1, were added and the covered plates were incubated for 24 h at 37°C with orbital shaking at 140 r.p.m. under microaerophilic conditions. The MIC was determined as the lowest compound concentration resulting in full growth inhibition after 24 h of incubation. All the tests were done in triplicate, including cell-free and DMSO-only controls.
(In general: In broth dilution the organism is exposed to a series of concentrations in liquid medium.)

For data set [3], the target named is T1, HpThyX (Helicobacter pylori, UniProt O26061).
T1 construct: His6; made in house; host or cells: Escherichia coli BL21 (plasmid pGL2, pBAD promoter)
T1 sequence (O26061 whole entry): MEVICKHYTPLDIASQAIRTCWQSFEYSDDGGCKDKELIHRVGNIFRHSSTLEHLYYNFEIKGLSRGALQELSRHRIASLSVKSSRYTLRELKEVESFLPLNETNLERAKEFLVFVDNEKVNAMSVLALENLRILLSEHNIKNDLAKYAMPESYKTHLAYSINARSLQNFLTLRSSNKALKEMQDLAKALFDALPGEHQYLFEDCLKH
Put plainly: NADPH oxidation assay. The note with it: estimated from slope of IC50 versus dUMP concentration. It is filed as biochemical. The procedure: (§3) HpThyX activity was assessed by measuring either deprotonation of [5-^3H]dUMP or NAPDH oxidation activities.
NADPH oxidation assays were performed at 37°C in 96-well plates (Greiner Bio-One). One hundred microlitres of reaction mixture contained HEPES 50 mM (pH 8.6), NaCl 150 mM, FAD 50 µM, β-mercaptoethanol 1.43 mM, NADPH 500 µM and 10 µM of purified HpThyX. dUMP and 2-OH-1,4-NQ concentrations were varied across 12.5–200 µM and 0.3–100 µM, respectively. Microtitre plates were prepared and transferred to the microplate reader Chameleon II (Hidex). The reactions were started by automatically injecting NADPH into individual wells and ThyX activity was determined by following a decrease in absorbance at 340 nm. A molar extinction coefficient of 6220 M^−1 cm^−1 at 340 nm (ε340) was used to quantify NADPH oxidation. Samples with added DMSO and enzyme-free reactions were used as positive and negative controls, respectively.

Data set [4] concerns the target T1, HpThyX. Put plainly: tritium release (deprotonation) assay of [5-3H]dUMP. It is filed as biochemical. The note with it: for remaining activity at 100 µM: 20 min, semi-quantitative deprotonation assay, lower = stronger inhibition, read-out: inhibition against ThyX (% remaining activity relative to control); for dTMP-forming activity: quantitative tritium release assay, 100 μM compound, 10 μM ThyX enzyme. The procedure: as §3
In the tritium release (deprotonation) assays, typical reactions contained 10 mM MgCl2, 10% (v/v) glycerol, 500 µM FAD, 2 mM NADPH, 1 mM CH2H4Folate and 10 mM β-mercaptoethanol in 50 mM HEPES (pH 8). Different concentrations of dUMP were also included in the reaction mixtures. The specific activity of tritiated [5-^3H]dUMP (diammonium salt) stock was 15–30 Ci mmol^−1 (Moravek Biochemicals, CA, USA). 2-OH-1,4-NQ derivatives were prepared at 100 µM in 1% DMSO. Reactions were initiated by adding the enzyme (10 µM) and were stopped after 20 min incubation at 37°C.

The subject of another data set is H. pylori strain 26695. As to the kind of experiment: MIC, broth microdilution test, strain 26695. In kind it is cell-based. Particulars: Helicobacter pylori. How it is done:
as §1, §2

Data set [5] has as its system H. pylori strain SS1. As to the kind of experiment: mouse infection and treatment, gastric colonization. It is filed as in vivo, Helicobacter pylori. Particulars: NMRI mice, orogastric three times a day, 0.375 mg mouse day^−1 (17 mg kg^−1), one week. The procedure:
(§4) NMRI-specific pathogen-free mice (Charles River Laboratories) were orogastrically inoculated with 10^8 CFU of the H. pylori mouse-adapted strain SS1, prepared in 100 μl of peptone broth. Four groups of six to eight mice were infected by H. pylori strain SS1. Earlier experiments have established that after one week, colonization of mice is fully established. A negative control group of five mice was inoculated with peptone broth alone and was not colonized by H. pylori. One week after infection, three groups of mice were treated orogastrically three times a day with 500 µl of either compound 010-C, 010-E or 010-I dissolved in 2% β-cyclodextrin at 0.25 mg ml^−1 (0.375 mg mouse d^−1) during one week. As a control, the fourth group of mice was treated orogastrically three times a day by the same amount of 2% β-cyclodextrin (17.6 mM), the vehicle of the compounds. […] This average size is in agreement with the average size of β-cyclodextrin particles that self-aggregate in water at a concentration of 12 mM [39]. After treatment, viable H. pylori cells, colonizing the mouse stomach, were enumerated by culture of serial dilutions of homogenized tissue on blood agar plates containing bacitracin (200 μg ml^−1) and nalidixic acid (10 μg ml^−1) as in [40].

Data set [6] can be described thus: tolerance of orogastric treatment in infected mice. It is filed as in vivo, NMRI mice. Particulars: orogastric three times a day, 0.375 mg mouse day^−1, one week; for effect on body or stomach weight: data not shown. The procedure:
as §4

For data set [7], the system named is AGS cells. Put plainly: mitotoxicity, resazurin reduction. In kind it is cell-based, human. The note with it: for mitotoxicity: 0.78 to 50 μg ml^−1, 4 h treatment; for effect on mitochondrial metabolism: low concentrations, resazurin reduction. The procedure: Mitochondrial toxicity (mitotoxicity) was assessed by measuring resazurin (7-hydroxy-3H-phenoxazin-3-one 10-oxide) reduction by following absorption changes at 570 nm (Mitochondrial Viability Assay; Abcam). Resazurin is an indicator dye that reports on oxidation–reduction reactions taking place in the mitochondria of living cells. AGS cells (≅2.5 × 10^5cells well^−1) cultured in a DMEM galactose/glutamine-supplemented medium were seeded in sterile white-walled 96-well clear-bottom microplates and treated for 4 h with different doses of 2-OH-1,4-NQ compounds ranging from 0.78 to 50 μg ml^−1. Addition of the stain solution was followed by a further 4 h incubation at 37°C (5% CO2, 90% humidity) and A570 was measured. Rotenone, an inhibitor of the mitochondrial respiratory chain complex I, was used as a positive control.
(In general: The colour change of resazurin is a common sign of viable cells or microbes.)

The test system of a further data set is H. pylori 26695. As to the kind of experiment: bactericidal activity, viable counts (CFU) in liquid culture. The note with it: exposure up to 24 h, replating on solid media. It is filed as cell-based, Helicobacter pylori. The procedure: To determine the bactericidal activity of C8-C1 against H. pylori, liquid BHI medium was inoculated with an overnight culture of H. pylori 26695 at an initial OD600 of 0.1. C8-C1 or chloramphenicol, used as bacteriostatic control, were added after 4 h of culture time at final concentrations of 5 and 30 µg ml^−1. To determine the viable counts of surviving bacteria (colony forming units, CFU), aliquots of culture were then plated in triplicate on blood agar plates after 3 and 24 h exposure.

In data set [8] the test system is H. pylori strains 26695 and SS1. Put plainly: disc diffusion test. In kind it is cell-based, Helicobacter pylori. Particulars: 10 μg per disc, 72 h. How it is done: as §2
Figure S2. Disk diffusion antibiograms of H. pylori strains 26695 (A) and SS1 (B) with the 2-OH-1,4-NQ compounds. To perform these disc diffusion tests, an overnight culture of the H. pylori strain was diluted to an OD600 ≈ 0.01. Blood agar plates were flooded with 2 ml of the diluted suspension. […] The diameters of each growth inhibition zone were measured on the Petri dish. […]
subtracting the disc diameter (6 mm) from the measured zone. […]

Where [9] appears, read: 26695, 24 h, full growth inhibition, read-out: minimal inhibitory concentration (MIC) strain 26695.
[10] abbreviates: 26695, 24 h, value in brackets, read-out: minimal inhibitory concentration (MIC) strain 26695.

Molecules are shown by their SMILES. pKi: −log10 of the molar value. “Also recorded” adds a separate entry of the source. Like-named read-outs stand apart in the source and are kept apart here.

Take `CCCCC1=C(O)C(=O)c2ccccc2C1=O` [010-I]: the cytotoxicity result in the data set with AGS cells [1] is “non-cytotoxic”. The MIC in the data set with H. pylori strain SS1 [2] (full growth inhibition) was found to be 10 µg/mL. The MIC in the data set on H. pylori strain SS1 [2] (value in brackets) was 43.4 µM. Moreover, the pKi on HpThyX [3] is 6.59. Moreover, at HpThyX [4], the remaining activity at 100 µM worked out at 64.3% and the dTMP-forming activity result was “suppressed the dTMP-forming activity”. For the same compound, the MIC with H. pylori strain 26695 (setting [9]) turned out to be 10 µg/mL. Besides, the MIC with H. pylori strain 26695 (setting [10]) worked out at 43.4 µM. In addition, in the data set with H. pylori strain SS1 [5], the “decrease in the colonization loads (geometric means) versus vehicle” value is 1.22 log and the “decrease in the colonization loads versus vehicle” value was 17 fold. In data set [6], the tolerance in mice entry is listed as “tolerated in mice” and the “effect on body or stomach weight” value is “None of the aforementioned treatments affected either the body or stomach weight”. Also, in the data set with AGS cells [7], the mitotoxicity entry is on record as “non-mitotoxic” and the “effect on mitochondrial metabolism” value is given as “activated the mitochondrial metabolism”.

With `COc1ccc(CC2=C(O)C(=O)c3ccccc3C2=O)cc1` [007-A, 2-hydroxy-3-(4-methoxybenzyl)-1,4-naphthoquinone], the cytotoxicity entry in the data set with AGS cells [1] is given as “non-cytotoxic”. Besides, the “kind of anti-microbial activity / viable cells after exposure” value in the data set with H. pylori 26695 (listed as C8-C1) was “no viable cells were recovered; also recorded: bactericidal”. Further, the MIC with H. pylori strain SS1 [2] (full growth inhibition) turned out to be 10 µg/mL; in the data set with H. pylori strain SS1 [2] (value in brackets) it was 34 µM; in the data set on H. pylori strain 26695 (setting [9]), 10 µg/mL; with H. pylori strain 26695 (setting [10]), 34 µM. Also, at HpThyX [3], the pKi is 6.44. At HpThyX [4], the remaining activity at 100 µM amounted to 38.5%. Also, the dTMP-forming activity result on HpThyX [4] was “suppressed the dTMP-forming activity”. For the same compound, the mitotoxicity entry in the data set on AGS cells [7] was “non-mitotoxic”. For the same compound, the “effect on mitochondrial metabolism” value in the data set on AGS cells [7] is “activated the mitochondrial metabolism”.

Take `O=C1C(O)=C(Cc2ccco2)C(=O)c2ccccc21` [010-C]: the cytotoxicity result in the data set with AGS cells [1] is on record as “non-cytotoxic”. In addition, the MIC with H. pylori strain SS1 [2] (full growth inhibition) was 10 µg/mL. Further, in the data set on H. pylori strain SS1 [2] (value in brackets), the MIC was found to be 39.3 µM. The pKi at HpThyX [3] was 7.55. At HpThyX [4], the remaining activity at 100 µM was 76.4% and the dTMP-forming activity result was “suppressed the dTMP-forming activity”. For the same compound, in the data set on H. pylori strain 26695 (setting [9]), the MIC came out at 10 µg/mL. Also, in the data set on H. pylori strain 26695 (setting [10]), the MIC turned out to be 39.3 µM. In data set [6], the tolerance in mice result is listed as “tolerated in mice” and the “effect on body or stomach weight” value is “None of the aforementioned treatments affected either the body or stomach weight”. Also, in the data set with AGS cells [7], the mitotoxicity result was “non-mitotoxic” and the “effect on mitochondrial metabolism” value is recorded as “activated the mitochondrial metabolism”.

With `O=C(N[C@H](CO)[C@H](O)c1ccc([N+](=O)[O-])cc1)C(Cl)Cl` [chloramphenicol, reference compound], the “kind of anti-microbial activity / viable cells after exposure” value with H. pylori 26695 is “bacteriostatic”.

`O=C1C(Cl)=C(Nc2ccc(F)cc2)C(=O)c2ccccc21` [010-G]: the cytotoxicity entry with AGS cells [1] was “cytotoxic”. The MIC is 0.625 µg/mL with H. pylori strain SS1 [2] (full growth inhibition); 2.07 µM in the data set with H. pylori strain SS1 [2] (value in brackets); 0.625 µg/mL in the data set on H. pylori strain 26695 (setting [9]); 2.07 µM with H. pylori strain 26695 (setting [10]); approximately 0.625 µg/mL in the data set with H. pylori strain 26695 (liquid cultures, strains 26695 and SS1 not distinguished, read-out: MIC). The remaining activity at 100 µM at HpThyX [4] came to 21.1%. For the same compound, in data set [8], the “activity in disc diffusion tests” value was “inactive”.

Usually pKi stands for the negative decadic logarithm of the Ki, by convention in mol/L. By remaining activity is commonly meant what remains of the control signal, in per cent.

(Values after article PMC4632503, “Targeting of Helicobacter pylori thymidylate synthase ThyX by non-mitotoxic hydroxy-naphthoquinones” (Open Biology, 2015).)
